In paper PMC11807261 (ACS infectious diseases, 2022):
Entries after “also recorded” stand apart in the source; their conditions may differ. Like-named read-outs stand apart in the source and are kept apart here.

Key:
[1] = target: T1, Mtb GlnA1 (Mycobacterium tuberculosis, UniProt P9WN39); test: biochemical
T1 construct: His6 (N); made in house; host or cells: E. coli BL21(DE3)

[2] = target: recombinant human glutamine synthetase (GS) (Homo sapiens, UniProt P15104); test: biochemical; format: biochemical; settings: for inhibition of recombinant human GS: LIN at 100 µM (Figure S7)
Chain of recombinant human glutamine synthetase (GS) (P15104 whole entry): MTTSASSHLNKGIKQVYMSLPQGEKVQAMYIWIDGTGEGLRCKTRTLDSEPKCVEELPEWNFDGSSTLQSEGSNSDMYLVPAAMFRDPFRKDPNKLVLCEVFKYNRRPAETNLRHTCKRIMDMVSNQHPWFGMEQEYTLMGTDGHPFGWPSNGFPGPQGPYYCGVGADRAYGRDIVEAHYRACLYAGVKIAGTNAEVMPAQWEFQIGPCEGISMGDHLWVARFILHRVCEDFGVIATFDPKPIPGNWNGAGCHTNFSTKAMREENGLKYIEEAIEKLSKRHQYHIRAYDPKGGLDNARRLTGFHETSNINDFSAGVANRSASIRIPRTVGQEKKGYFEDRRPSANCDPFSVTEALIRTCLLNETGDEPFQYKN

[3] = test system: Mtb H37Rv within THP-1 macrophages; format: cell-based, Mycobacterium tuberculosis
[4] = test system: Mtb H37Rv; format: cell-based, Mycobacterium tuberculosis
[5] = Cytotoxicity (CC50); format: cell-based; settings: African green monkey, Vero E6 cells
[6] = test system: THP-1 macrophages; format: cell-based
[7] = compounds directly from MMV Pathogen Box library plates, read-out: IC50 (μM), library
[8] = compounds resupplied from MMV, mean ± SE (n=3), read-out: IC50 (μM), resupply

T1 sequence (P9WN39 whole entry): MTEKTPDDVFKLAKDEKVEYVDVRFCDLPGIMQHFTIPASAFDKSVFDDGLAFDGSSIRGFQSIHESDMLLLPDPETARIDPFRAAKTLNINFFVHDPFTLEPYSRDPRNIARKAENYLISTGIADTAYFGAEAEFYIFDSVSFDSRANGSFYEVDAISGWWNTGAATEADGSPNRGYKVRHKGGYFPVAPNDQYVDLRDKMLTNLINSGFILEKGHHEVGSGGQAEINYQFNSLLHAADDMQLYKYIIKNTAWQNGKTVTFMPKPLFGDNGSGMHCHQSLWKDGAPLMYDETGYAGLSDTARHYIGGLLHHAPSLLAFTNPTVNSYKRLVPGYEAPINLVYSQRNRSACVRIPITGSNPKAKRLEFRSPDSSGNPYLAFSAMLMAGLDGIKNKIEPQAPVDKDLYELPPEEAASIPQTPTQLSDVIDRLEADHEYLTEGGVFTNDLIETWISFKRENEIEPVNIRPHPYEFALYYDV

CP(=O)(O)CCC(N)C(=O)O (racemic) [PPT, DL-phosphinothricin]
IC50 [1]: 4.45 ± 0.19 µM

COc1ccc2cc(-c3nc(C(C)(C)C)[nH]c3-c3ccnc(N)c3)ccc2c1 [11a]
inhibition of recombinant human GS [2]: did inhibit it considerably
IC50 ([2]; malachite green assay, read-out: IC50 against human GS): ~10400 nM
IC50 [1]: 0.53 ± 0.027 µM

C[C@]1(O)C[C@@H](c2nc(-c3ccc4ccc(-c5ccccc5)nc4c3)c3c(N)nccn32)C1 [LIN, linsitinib]
inhibition of recombinant human GS [2]: did not inhibit; also recorded: does not inhibit
intracellular Mtb killing in combination with bedaquiline (CFU) [3]: eliminated more intracellular Mtb and improved the killing effect of BDQ
survival of intracellular Mtb (CFU) [3]: significantly decreased the survival
growth inhibition concentration (GIC) [4]: ~ 21 μM
CC50 [5]: 67500 nM
level of mTOR phosphorylation [6]: reduce the level of mTOR phosphorylation
level of p62 (autophagy flux) [6]: seemingly reduced
apoptosis induction (cleaved caspase 3) ([6]; 10 μM LIN, Western blotting): no apoptosis induction
autophagy induction (LC3B-II converted from LC3B-I) ([6]; 10 μM LIN, Western blotting): induced autophagy
autophagosome and autolysosome forming puncta ([6]; mRFP-GFP-LC3 reporter THP-1, 10 μM LIN 24 h, Mtb-infected and uninfected): elevated

Cc1ccc(NC(=O)c2nc[nH]c2C(=O)Nc2nc3ccccc3[nH]2)c(C)c1 [MMV011903]
IC50 [1, 7]: 0.78 µM
IC50 [1, 8]: 1.63 ± 0.2 µM

c1ccc(-c2nc(NC3CCCCC3)cc(C3CC3)n2)nc1 [MMV021013]
IC50 [1, 7]: 0.69 µM
IC50 [1, 8]: 0.69 ± 0.08 µM

CC(C)(CN)c1nc(-c2ccc(Cl)c(O)c2)c(-c2ccnc(N)n2)[nH]1 [MMV030734]
IC50 [1, 7]: 1.38 µM
IC50 [1, 8]: 1.84 ± 0.09 µM

Cc1nc(-c2ccccn2)nc(N2CCC(Cc3ccccc3)C2)c1Cl (stereo not shown) [MMV659004]
IC50 [1, 7]: 1.14 µM
IC50 [1, 8]: 0.66 ± 0.04 µM
